Measurements: US20140249135A1, “PIM KINASE INHIBITORS AND METHODS OF THEIR USE” (NOVARTIS AG, priority 2007, published 2014)
Like-named read-outs stand apart in the source and are kept apart here.

Key:
[1] = biological target: KDR kinase (Homo sapiens, UniProt P35968); experiment: KDR AlphaScreen assay; details: KDR IC50 (μM)
[2] = tested on: MM1.s (human myeloma cell line); experiment: Cell proliferation assay (CellTiter-Glo), MM1.s; type: cell-based; details: MM1.s cells
Method: (§1) KMS 11 (human myeloma cell line), were cultured in IMDM supplemented with 10% FBS, sodium pyruvate and antibiotics. Cells were plated in the same medium at a density of 2000 cells per well into 96 well tissue culture plates, with outside wells vacant, on the day of assay. MM1.s (human myeloma cell line), were cultured in RPMI1640 supplemented with 10% FBS, sodium pyruvate and antibiotics. Cells were plated in the same medium at a density of 5000 cells per well into 96 well tissue culture plates, with outside wells vacant, on the day of assay.
(§2) Test compounds supplied in DMSO were diluted into DMSO at 500 times the desired final concentrations before dilution into culture media to 2 times final concentrations. Equal volumes of 2× compounds were added to the cells in 96 well plates and incubated at 37° C. for 3 days.
(§3) After 3 days plates were equilibrated to room temperature and equal volume of CellTiter-Glow Reagent (Promega) was added to the culture wells. The plates were agitated briefly and luminescent signal was measured with luminometer. The percent inhibition of the signal seen in cells treated with DMSO alone vs. cells treated with control compound was calculated and used to determine EC50 values (i.e., the concentration of a test compound that is required to obtain 50% of the maximum effect in the cells) for tested compounds, as shown in Example 763.

[3] = tested on: KMS 11 (human myeloma cell line); experiment: Cell proliferation assay (CellTiter-Glo), KMS 11; type: cell-based; details: KMS11 cells
Method: as §1, §2, §3

[4] = biological target: Pim1 kinase (Homo sapiens, UniProt P11309); experiment: Pim1 ATP depletion assay; type: biochemical;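 further: Luciferase-luciferin luminescence readout of residual ATP after PIM1 transfers phosphate to a peptide substrate, 40 µM ATP added, reaction run to roughly half ATP consumption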
[5] = biological target: Pim3 kinase (Homo sapiens, UniProt Q86V86); experiment: Pim3 ATP depletion assay; type: biochemical
[6] = biological target: Pim2 kinase (Homo sapiens, UniProt Q9P1W9); experiment: Pim2 ATP depletion assay; type: biochemical;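 further: Luciferase-based luminescent readout of ATP remaining after PIM2 phosphorylates a BAD peptide, final 5 nM enzyme, 4 µM ATP, 10 µM peptide, 2.5% DMSO, run to roughly half ATP consumption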
[7] = Pim1 ATP depletion assay, read-out: IC50 (μM) PIM1
[8] = Pim1 ATP depletion assay, read-out: PIM1 IC50

Chain of Pim2 kinase (Q9P1W9 whole entry): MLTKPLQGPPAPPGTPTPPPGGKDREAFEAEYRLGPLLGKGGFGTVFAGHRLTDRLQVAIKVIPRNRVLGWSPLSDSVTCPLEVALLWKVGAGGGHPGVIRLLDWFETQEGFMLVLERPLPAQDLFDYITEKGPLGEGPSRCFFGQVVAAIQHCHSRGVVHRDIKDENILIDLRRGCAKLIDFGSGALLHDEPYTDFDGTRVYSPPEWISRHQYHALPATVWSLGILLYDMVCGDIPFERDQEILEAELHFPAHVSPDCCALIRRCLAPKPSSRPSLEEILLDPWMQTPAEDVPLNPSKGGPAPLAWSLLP
Chain of Pim1 kinase (P11309 whole entry): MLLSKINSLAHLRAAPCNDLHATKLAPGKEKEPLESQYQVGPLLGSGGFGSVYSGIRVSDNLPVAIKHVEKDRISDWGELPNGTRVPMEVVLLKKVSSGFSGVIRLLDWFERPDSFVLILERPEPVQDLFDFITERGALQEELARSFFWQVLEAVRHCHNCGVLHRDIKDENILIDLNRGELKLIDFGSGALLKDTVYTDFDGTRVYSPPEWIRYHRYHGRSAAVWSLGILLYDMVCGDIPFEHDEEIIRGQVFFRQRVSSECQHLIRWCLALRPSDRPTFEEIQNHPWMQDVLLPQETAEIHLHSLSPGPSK
Chain of KDR kinase (P35968 20-1356): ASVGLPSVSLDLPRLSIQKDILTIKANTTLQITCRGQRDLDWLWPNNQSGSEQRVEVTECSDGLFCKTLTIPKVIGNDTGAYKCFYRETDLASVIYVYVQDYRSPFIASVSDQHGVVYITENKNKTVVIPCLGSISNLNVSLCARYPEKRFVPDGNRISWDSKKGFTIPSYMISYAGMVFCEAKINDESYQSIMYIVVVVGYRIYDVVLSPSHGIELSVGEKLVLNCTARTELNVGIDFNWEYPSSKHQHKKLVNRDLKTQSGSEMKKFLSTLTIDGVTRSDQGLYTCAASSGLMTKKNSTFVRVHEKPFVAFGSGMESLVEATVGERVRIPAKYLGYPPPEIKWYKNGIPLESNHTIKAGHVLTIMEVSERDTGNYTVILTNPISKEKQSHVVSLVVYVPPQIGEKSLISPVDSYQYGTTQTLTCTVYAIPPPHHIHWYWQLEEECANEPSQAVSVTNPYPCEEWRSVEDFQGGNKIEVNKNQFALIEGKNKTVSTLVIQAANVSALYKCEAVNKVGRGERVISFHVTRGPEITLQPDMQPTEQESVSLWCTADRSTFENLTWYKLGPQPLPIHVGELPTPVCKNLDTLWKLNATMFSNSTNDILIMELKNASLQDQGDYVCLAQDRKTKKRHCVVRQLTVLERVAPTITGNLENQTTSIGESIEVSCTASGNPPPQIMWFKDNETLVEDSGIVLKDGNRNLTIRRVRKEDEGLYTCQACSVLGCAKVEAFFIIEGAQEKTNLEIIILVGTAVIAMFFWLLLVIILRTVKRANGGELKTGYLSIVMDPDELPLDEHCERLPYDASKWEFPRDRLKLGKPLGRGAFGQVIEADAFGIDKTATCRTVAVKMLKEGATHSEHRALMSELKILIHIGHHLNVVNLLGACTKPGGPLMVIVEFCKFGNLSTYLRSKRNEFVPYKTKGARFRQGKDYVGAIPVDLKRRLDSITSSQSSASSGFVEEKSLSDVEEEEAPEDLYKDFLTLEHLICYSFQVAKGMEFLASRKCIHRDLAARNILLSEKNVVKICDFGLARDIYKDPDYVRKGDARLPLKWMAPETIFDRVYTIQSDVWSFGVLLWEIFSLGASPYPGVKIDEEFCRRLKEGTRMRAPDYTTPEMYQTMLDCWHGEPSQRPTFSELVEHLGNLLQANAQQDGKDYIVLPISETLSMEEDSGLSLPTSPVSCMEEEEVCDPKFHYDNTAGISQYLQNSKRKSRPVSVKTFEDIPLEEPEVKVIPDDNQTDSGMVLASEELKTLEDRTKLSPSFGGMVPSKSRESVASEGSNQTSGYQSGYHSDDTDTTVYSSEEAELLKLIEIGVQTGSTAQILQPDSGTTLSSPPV

N[C@H]1CCCN(c2ccncc2NC(=O)c2cccc(-c3c(F)cccc3F)n2)C1 [Example 454, 6-(2,6-Difluoro-phenyl)-pyridine-2-carboxylic acid (3-amino-3,4,5,6-tetrahydro-2H-[1,4′]bi-pyridinyl-3′-yl)-amide]
IC50 [1]: 10 to 25 µM | EC50 ([2]; read-out: EC50 (μM) MM1.s): 5 to 10 µM | EC50 ([3]; read-out: EC50 (μM) KMS11): 1 to 5 µM | IC50 [4, 7]: < 1 µM | IC50 ([5]; read-out: IC50 (μM) PIM3): < 1 µM | IC50 ([6]; read-out: IC50 (μM) PIM2): < 1 µM

CCCOc1ccc(F)c(-c2ccc(N)c(C(=O)Nc3cnccc3N3C[C@@H](N)C[C@@H](OC)C3)n2)c1 [Example 579, 3-Amino-6-(2-fluoro-5-propoxy-phenyl)-pyridine-2-carboxylic acid (3-amino-5-methoxy-3,4,5,6-tetrahydro-2H-[1,4′]bi-pyridinyl-3′-yl)-amide]
EC50 ([2]; read-out: MM1.s EC50): 1 to 5 µM | EC50 ([3]; read-out: KMS11 EC50): < 1 µM | IC50 [4, 8]: < 1 µM | IC50 ([5]; read-out: PIM3 IC50): < 1 µM | IC50 ([6]; read-out: PIM2 IC50): < 1 µM

CC(C)NC(=O)c1ccc(F)c(-c2ccc(N)c(C(=O)Nc3cnccc3N3CC[C@H](O)[C@H](N)C3)n2)c1 [Example 753, 3-Amino-6-(2-fluoro-5-isopropyl-carbamoyl-phenyl)-pyridine-2-carboxylic acid (3-amino-4-hydroxy-3,4,5,6-tetrahydro-2H-[1,4′]bipyridinyl-3′-yl)-amide]
EC50 ([2]; read-out: MM1.s EC50): < 1 µM | EC50 ([3]; read-out: KMS11 EC50): 1 to 5 µM | IC50 [4, 8]: < 1 µM | IC50 ([5]; read-out: PIM3 IC50): < 1 µM | IC50 ([6]; read-out: PIM2 IC50): < 1 µM

Nc1cc(F)c(-c2ccccc2F)nc1C(=O)Nc1cnccc1N1CCC[C@H](N)C1 [Example 517, 3-Amino-5-fluoro-6-(2-fluoro-phenyl)-pyridine-2-carboxylic acid (3-amino-3,4,5,6-tetrahydro-2H-[1,4′]bipyridinyl-3′-yl)-amide]
EC50 ([2]; read-out: EC50 (μM) MM1.s): 1 to 5 µM | EC50 ([3]; read-out: EC50 (μM) KMS11): 1 to 5 µM | IC50 [4, 7]: < 1 µM | IC50 ([5]; read-out: IC50 (μM) PIM3): < 1 µM | IC50 ([6]; read-out: IC50 (μM) PIM2): < 1 µM

Nc1ccc(-c2c(F)cccc2F)nc1C(=O)Nc1cnccc1N1CCC[C@@H](N)C1 [Example 462, 3-Amino-6-(2,6-difluoro-phenyl)-pyridine-2-carboxylic acid (3-amino-3,4,5,6-tetrahydro-2H-[1,4′]bipyridinyl-3′-yl)-amide]
EC50 ([2]; read-out: EC50 (μM) MM1.s): 1 to 5 µM | EC50 ([3]; read-out: EC50 (μM) KMS11): 1 to 5 µM | IC50 [4, 7]: < 1 µM | IC50 ([5]; read-out: IC50 (μM) PIM3): < 1 µM | IC50 ([6]; read-out: IC50 (μM) PIM2): < 1 µM

Nc1ccc(-c2c(F)cccc2F)nc1C(=O)Nc1cnccc1N1CC[C@@H](O)[C@H](N)C1 [Example 679, 3-Amino-6-(2,6-difluoro-phenyl)-pyridine-2-carboxylic acid (3-amino-4-hydroxy-3,4,5,6-tetrahydro-2H-[1,4′]bi-pyridinyl-3′-yl)-amide]
EC50 ([2]; read-out: MM1.s EC50): < 1 µM | EC50 ([3]; read-out: KMS11 EC50): 1 to 5 µM | IC50 [4]: < 1 µM | IC50 ([5]; read-out: PIM3 IC50): < 1 µM | IC50 ([6]; read-out: PIM2 IC50): < 1 µM

CC(C)NC(=O)c1ccc(F)c(-c2ccc(N)c(C(=O)Nc3cnccc3N3C[C@@H](N)C[C@@H](F)C3)n2)c1 [Example 292, 3-Amino-6-(2-fluoro-5-isopropylcarbamoyl-phenyl)-pyridine-2-carboxylic acid (3-amino-5-fluoro-3,4,5,6-tetra-hydro-2H-[1,4′]bipyridinyl-3′-yl)-amide]
EC50 ([2]; read-out: EC50 (μM) MM1.s): < 1 µM | EC50 ([3]; read-out: EC50 (μM) KMS11): < 1 µM | IC50 [4, 7]: < 1 µM | IC50 ([5]; read-out: IC50 (μM) PIM3): < 1 µM | IC50 ([6]; read-out: IC50 (μM) PIM2): < 1 µM

CC(C)NC(=O)c1ccc(F)c(-c2nc(C(=O)Nc3cnccc3N3CCC[C@H](N)C3)ccc2F)c1 [Example 443, 5-Fluoro-6-(2-fluoro-5-isopropylcarbamoyl-phenyl)-pyridine-2-carboxylic acid (3-amino-3,4,5,6-tetrahydro-2H-[1,4′]bipyridinyl-3′-yl)-amide]
EC50 ([2]; read-out: EC50 (μM) MM1.s): 5 to 10 µM | EC50 ([3]; read-out: EC50 (μM) KMS11): 1 to 5 µM | IC50 [4, 7]: < 1 µM | IC50 ([5]; read-out: IC50 (μM) PIM3): < 1 µM | IC50 ([6]; read-out: IC50 (μM) PIM2): < 1 µM

N[C@H]1CCCN(c2ccncc2NC(=O)c2nc(-c3c(F)cccc3F)ccc2F)C1 [Example 570, 6-(2,6-Difluoro-phenyl)-3-fluoro-pyridine-2-carboxylic acid (3-amino-3,4,5,6-tetrahydro-2H-[1,4′]bipyridinyl-3′-yl)-amide]
EC50 ([2]; read-out: MM1.s EC50): 1 to 5 µM | EC50 ([3]; read-out: KMS11 EC50): 1 to 5 µM | IC50 [4, 8]: < 1 µM | IC50 ([5]; read-out: PIM3 IC50): < 1 µM | IC50 ([6]; read-out: PIM2 IC50): < 1 µM

CC(C)NC(=O)c1ccc(F)c(-c2nc(C(=O)Nc3cnccc3N3CCC[C@H](N)C3)c(N)cc2F)c1F [Example 736, 3-Amino-6-(2,6-difluoro-3-isopropylcarbamoyl-phenyl)-5-fluoro-pyridine-2-carboxylic acid (3-amino-3,4,5,6-tetra-hydro-2H-[1,4′]bipyridinyl-3′-yl)-amide]
EC50 ([2]; read-out: MM1.s EC50): 1 to 5 µM | EC50 ([3]; read-out: KMS11 EC50): < 1 µM | IC50 [4, 8]: < 1 µM | IC50 ([5]; read-out: PIM3 IC50): < 1 µM | IC50 ([6]; read-out: PIM2 IC50): < 1 µM

N[C@H]1CCCN(c2ccncc2NC(=O)c2ccc(F)c(-c3ccccc3)n2)C1 [Example 442, 5-Fluoro-6-phenyl-pyridine-2-carboxylic acid (3-amino-3,4,5,6-tetrahydro-2H-[1,4′]bipyridinyl-3′-yl)-amide]
EC50 ([2]; read-out: EC50 (μM) MM1.s): 5 to 10 µM | EC50 ([3]; read-out: EC50 (μM) KMS11): 1 to 5 µM | IC50 [4, 7]: < 1 µM | IC50 ([5]; read-out: IC50 (μM) PIM3): < 1 µM | IC50 ([6]; read-out: IC50 (μM) PIM2): < 1 µM

Nc1cc(F)c(-c2ncccc2F)nc1C(=O)Nc1cnccc1N1CCC[C@H](N)C1 [Example 744, 5-Amino-3,3′-difluoro-[2,2′]bi-pyridinyl-6-carboxylic acid (3-amino-3,4,5,6-tetrahydro-2H-[1,4′]bipyridinyl-3′-yl)-amide]
EC50 ([2]; read-out: MM1.s EC50): 1 to 5 µM | EC50 ([3]; read-out: KMS11 EC50): 1 to 5 µM | IC50 [4, 8]: < 1 µM | IC50 ([5]; read-out: PIM3 IC50): < 1 µM | IC50 ([6]; read-out: PIM2 IC50): < 1 µM

CCCOc1ccc(F)c(-c2ccc(N)c(C(=O)Nc3cnccc3N3CCC[C@H](N)C3)n2)c1F [Example 491, 3-Amino-6-(2,6-difluoro-3-propoxy-phenyl)-pyridine-2-carboxylic acid (3-amino-3,4,5,6-tetrahydro-2H-[1,4′]bipyridinyl-3′-yl)-amide]
EC50 ([2]; read-out: EC50 (μM) MM1.s): 1 to 5 µM | EC50 ([3]; read-out: EC50 (μM) KMS11): 1 to 5 µM | IC50 [4, 7]: < 1 µM | IC50 ([5]; read-out: IC50 (μM) PIM3): < 1 µM | IC50 ([6]; read-out: IC50 (μM) PIM2): < 1 µM

Nc1ccc(-c2c(F)cccc2F)nc1C(=O)Nc1cnccc1N1CCCC2(CCNC2)C1 (stereo not drawn) [Example 290, 3-Amino-6-(2,6-difluoro-phenyl)-pyridine-2-carboxylic acid [4-(2,7-diaza-spiro[4.5]dec-7-yl)-pyridin-3-yl]-amide]
EC50 ([2]; read-out: EC50 (μM) MM1.s): 1 to 5 µM | EC50 ([3]; read-out: EC50 (μM) KMS11): 1 to 5 µM | IC50 [4, 7]: < 1 µM | IC50 ([5]; read-out: IC50 (μM) PIM3): < 1 µM | IC50 ([6]; read-out: IC50 (μM) PIM2): < 1 µM

CO[C@@H]1C[C@H](N)CN(c2ccncc2NC(=O)c2nc(-c3cc(C(=O)NC(C)C)ccc3F)ccc2N)C1 [Example 298, 3-Amino-6-(2-fluoro-5-isopropylcarbamoyl-phenyl)-pyridine-2-carboxylic acid (3-amino-5-methoxy-3,4,5,6-tetra-hydro-2H-[1,4′]bipyridinyl-3′-yl)-amide]
EC50 ([2]; read-out: EC50 (μM) MM1.s): < 1 µM | EC50 ([3]; read-out: EC50 (μM) KMS11): < 1 µM | IC50 [4, 7]: < 1 µM | IC50 ([5]; read-out: IC50 (μM) PIM3): < 1 µM | IC50 ([6]; read-out: IC50 (μM) PIM2): < 1 µM

Nc1ccc(-c2ncccc2F)nc1C(=O)Nc1cnccc1N1CCC[C@H](N)C1 [Example 702, 5-Amino-3′-fluoro-[2,2′]bi-pyridinyl-6-carboxylic acid (3-amino-3,4,5,6-tetrahydro-2H-[1,4′]bipyridinyl-3′-yl)-amide]
EC50 ([2]; read-out: MM1.s EC50): 1 to 5 µM | EC50 ([3]; read-out: KMS11 EC50): 1 to 5 µM | IC50 [4, 8]: < 1 µM | IC50 ([5]; read-out: PIM3 IC50): < 1 µM | IC50 ([6]; read-out: PIM2 IC50): < 1 µM

CO[C@@H]1C[C@H](N)CN(c2ccncc2NC(=O)c2nc(-c3c(F)cccc3F)ccc2N)C1 [Example 300, 3-Amino-6-(2,6-difluoro-phenyl)-pyridine-2-carboxylic acid (3-amino-5-methoxy-3,4,5,6-tetrahydro-2H-[1,4′]bi-pyridinyl-3′-yl)-amide]
EC50 ([2]; read-out: EC50 (μM) MM1.s): < 1 µM | EC50 ([3]; read-out: EC50 (μM) KMS11): < 1 µM | IC50 [4, 7]: < 1 µM | IC50 ([5]; read-out: IC50 (μM) PIM3): < 1 µM | IC50 ([6]; read-out: IC50 (μM) PIM2): < 1 µM

Nc1cc(F)c(-c2c(F)cccc2F)nc1C(=O)Nc1cnccc1N1CCC[C@H](N)C1 [Example 516, 3-Amino-6-(2,6-difluoro-phenyl)-5-fluoro-pyridine-2-carboxylic acid (3-amino-3,4,5,6-tetrahydro-2H-[1,4′]bipyridinyl-3′-yl)-amide]
EC50 ([2]; read-out: EC50 (μM) MM1.s): < 1 µM | EC50 ([3]; read-out: EC50 (μM) KMS11): < 1 µM | IC50 [4, 7]: < 1 µM | IC50 ([5]; read-out: IC50 (μM) PIM3): < 1 µM | IC50 ([6]; read-out: IC50 (μM) PIM2): < 1 µM

CC(C)Oc1ccc(F)c(-c2nc(C(=O)Nc3cnccc3N3CCC[C@H](N)C3)c(N)cc2F)c1F [Example 496, 3-Amino-6-(2,6-difluoro-3-isopropoxy-phenyl)-5-fluoro-pyridine-2-carboxylic acid (3-amino-3,4,5,6-tetrahydro-2H-[1,4′]bipyridinyl-3′-yl)-amide]
EC50 ([2]; read-out: EC50 (μM) MM1.s): < 1 µM | EC50 ([3]; read-out: EC50 (μM) KMS11): < 1 µM | IC50 [4, 7]: < 1 µM | IC50 ([5]; read-out: IC50 (μM) PIM3): < 1 µM | IC50 ([6]; read-out: IC50 (μM) PIM2): < 1 µM
